*1 amine or outer side, *2 acyl side, *3 side chain or, on linkers, in order; H or OH if unused. Where a SMILES comes first, the peptide text is derived from it. Bridges are numbered along the chain shown (N, C = ends). [ ]: non-standard residue; d: D form. Phenylene(1,4-NHCOCH2)2 = O=C(C[*:1])Nc1ccc(NC(=O)C[*:2])cc1; dNle = CCCC[C@@H](N)C(=O)O

The text below walks through data of patent publication US20240391956A1, “STAPLED PEPTIDES AND METHODS THEREOF” (FOG PHARMACEUTICALS, INC., priority 2023, published 2024).

In the first experiment the target is T1, MDM2 (residues 25-109) (Homo sapiens, UniProt Q00987).
T1 construct: MDM2 (residues 25-109) with an N-terminal 6×His-yBBr-TEV tag was recombinantly expressed in E. coli; made in house; host or cells: E. coli BL21 CodonPlus
T1 sequence (Q00987 25-109): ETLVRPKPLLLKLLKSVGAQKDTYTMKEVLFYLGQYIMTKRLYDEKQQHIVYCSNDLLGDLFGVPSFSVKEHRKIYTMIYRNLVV
The experiment can be described thus: SPR binding to immobilized biotinylated MDM2 25-109 (Biacore 8K).
Conditions: not given
The procedure:
SPR experiments were performed on a Biacore 8K (Cytiva) instrument at 25° C. in 1×HBS-P+ buffer (Cytiva) with 1% DMSO. A SA Series S sensor chip was docked and pre-conditioned with three injections of 50 mM NaOH/1 M NaCl to remove unbound streptavidin from the surface. Biotinylated MDM2^25-109 were diluted to 2 μg/mL in running buffer and immobilized to channels 1 through 8 at 5 μL/min for 71 sec for a final immobilization level of ˜390 RU. Peptides were diluted to 5 μM in running buffer then serially diluted 2-fold for a total of seven concentrations with one blank (7-point two-fold peptide dilution series with top concentration=5 μM and bottom concentration=78 nM). Compounds were injected over the immobilized and reference surfaces at 30 μL/min for 60 sec and then allowed to dissociate for 180 sec without surface regeneration (N=1). Data was analyzed using Biacore Insight Evaluation software (Cytiva). Sensorgrams were double referenced, with most of them fitted to a 1:1 steady state affinity model, with a few fitted with both steady state affinity model and kinetics model.
MDM2 expression: MDM2 (residues 25-109) with an N-terminal 6×His-yBBr-TEV tag was recombinantly expressed in E. coli BL21 CodonPlus cells (Agilent) from pET-derived expression vectors (Novagen) (“6×His” disclosed as SEQ ID NO: 13). The cells were induced at OD600=0.6 with 1 mM isopropyl β-D-1-thiogalactopyranoside (IPTG) for 4 hours at 37° C., then harvested and resuspended in 25 mM Tris-HCl pH 7.5, 300 mM NaCl, 10% glycerol, 1 mM PMSF. For purification, the pellet was lysed with a tip sonicator, and pelleted at 22,000×g for 30 minutes at 4° C. The pellets were washed with 20 mM Tris-HCl pH 8.0, 150 mM NaCl, 1 M urea, 1.0% triton X-100 three times, and the inclusion body was dissolved in 20 mM Tris-HCl pH 8.0, 150 mM NaCl, 8 M urea, and 2 mM ß-mercaptoethanol (ß-me). The supernatant was purified with Ni-NTA resin (Qiagen), eluting with 20 mM Tris-HCl pH 8.0, 150 mM NaCl, 8 M urea, 2 mM ß-me, and 250 mM imidazole. Protein elutes were diluted to ˜0.1 mg/mL and dialyzed into buffers containing 10 mM Tris-HCl pH 8.0, 150 mM NaCl, 2 mM ß-me, with 4, 2, 1, or 0 M urea, at 4° C. for 8 hours for each urea gradient. Urea-free proteins were concentrated with Amicon spin filters (Millipore Sigma) to ˜1 mg/mL and biotinylated via the yBBr reaction according to reported procedures (e.g., reported in Yin, J. et al. Genetically encoded short peptide tag for versatile protein labeling by Sfp phosphopantetheinyl transferase. Proceedings of the National Academy of Sciences 102, 15815-15820 (2005)). Biotinylated proteins were pooled, concentrated, and loaded onto a Superdex™ 10/300 75 pg (Cytiva) SEC column and eluted in 20 mM HEPES pH 7.0, 200 mM NaCl, 5% glycerol, 0.5 mM tris(2-carboxyethyl) phosphine (TCEP). Fractions containing pure protein were collected, pooled, concentrated to ˜1 mg/mL and stored at −80° C. In some embodiments, such MDM2 preparation were utilized in biochemical assays.
Broadly, the Kd is the constant that tells how readily two partners part at equilibrium. For the compound `CCCC[C@H]1NC(=O)[C@@H](CC(=O)O)NC(=O)[C@@H](C)NC(=O)[C@@H](C)NC(=O)[C@@H](CC(C)C)NC(=O)[C@@H](CC(N)=O)NC(=O)[C@H](NC(=O)[C@@H](CCC(=O)O)NC(=O)[C@H](NC(=O)[C@@H](CC(C)C)NC(=O)[C@@H](C)NC(=O)[C@H]2CCCN2C(=O)[C@@H](CC(=O)O)NC(C)=O)C(C)C)CSCC(=O)Nc2ccc(cc2)NC(=O)CSC[C@H](C(=O)N[C@H](Cc2c[nH]cn2)C(=O)N[C@H](Cc2ccccc2)C(=O)N[C@H](Cc2ccc(O)cc2)C(N)=O)NC1=O` [H104, Ac-dpalvecnlaadm*chfy-NH2] (Ac-[dD][dP][dA][dL][dV][dE][dC][dN][dL][dA][dA][dD][dNle][dC][dH][dF][dY]-NH2; linker 7-14 via Phenylene(1,4-NHCOCH2)2), the Kd was 1.8 µM.
As to `CCCC[C@H]1NC(=O)[C@@H](C)NC(=O)[C@@H](C)NC(=O)[C@@H](CCCC)NC(=O)[C@@H](C(C)C)NC(=O)[C@H](NC(=O)[C@@H](CCC(N)=O)NC(=O)[C@@H](Cc2c[nH]c3ccccc23)NC(=O)[C@@H](CO)NC(=O)[C@@H](C)NC(=O)[C@H]2CCCN2C(=O)[C@@H](CC(=O)O)NC(C)=O)CSCC(=O)Nc2ccc(cc2)NC(=O)CSC[C@H](C(=O)N[C@@H](C(=O)N[C@H](CC(C)C)C(=O)N[C@H](CC(=O)O)C(N)=O)C(C)C)NC(=O)[C@@H](CC(=O)O)NC1=O` [H109, Ac-dpaswqcvm*aam*dcvld-NH2] (Ac-[dD][dP][dA][dS][dW][dQ][dC][dV][dNle][dA][dA][dNle][dD][dC][dV][dL][dD]-NH2; linker 7-14 via Phenylene(1,4-NHCOCH2)2), binding was put at a Kd of 2.4 µM.
On the same count and under the same terms, next, `CC(=O)N[C@H](CC(=O)O)C(=O)N1CCC[C@@H]1C(=O)N[C@H](C)C(=O)N[C@H](Cc1c[nH]c2ccccc12)C(=O)N[C@H](CC(N)=O)C(=O)N[C@H](Cc1c[nH]cn1)C(=O)N[C@@H]1CSCC(=O)Nc2ccc(cc2)NC(=O)CSC[C@H](C(=O)N[C@H](CO)C(=O)N[C@H](CCC(=O)O)C(=O)N[C@@H](C(N)=O)C(C)C)NC(=O)[C@@H](C(C)C)NC(=O)[C@@H](Cc2ccccc2)NC(=O)[C@@H](C)NC(=O)[C@@H](C)NC(=O)[C@@H](Cc2ccc(O)cc2)NC(=O)[C@@H](CCC(=O)O)NC1=O` [H102, Ac-dpawnhceyaafvcsev-NH2] (Ac-[dD][dP][dA][dW][dN][dH][dC][dE][dY][dA][dA][dF][dV][dC][dS][dE][dV]-NH2; linker 7-14 via Phenylene(1,4-NHCOCH2)2): 2.7 µM; `CCCC[C@@H](NC(=O)[C@@H](CCC(N)=O)NC(=O)[C@@H](CC(C)C)NC(=O)[C@H]1CSCC(=O)Nc2ccc(cc2)NC(=O)CSC[C@@H](NC(=O)[C@H](NC(=O)[C@@H](C)NC(=O)[C@@H](Cc2c[nH]c3ccccc23)NC(=O)[C@@H](C)NC(=O)[C@H]2CCCN2C(=O)[C@@H](CC(=O)O)NC(C)=O)[C@H](C)O)C(=O)N[C@H](CCCC)C(=O)N[C@H](CC(=O)O)C(=O)N[C@H](C)C(=O)N[C@H](C)C(=O)N[C@H](CC(C)C)C(=O)N[C@H](CC(N)=O)C(=O)N1)C(N)=O` [H106, Ac-dpawatcm*daalnclqm*- NH2] (Ac-[dD][dP][dA][dW][dA][dT][dC][dNle][dD][dA][dA][dL][dN][dC][dL][dQ][dNle]-NH2; linker 7-14 via Phenylene(1,4-NHCOCH2)2): 1.8 µM; `CCCC[C@H]1NC(=O)[C@@H](C)NC(=O)[C@@H](C)NC(=O)[C@@H](CCC(=O)O)NC(=O)[C@@H](CCCC)NC(=O)[C@H](NC(=O)[C@@H](CCC(=O)O)NC(=O)[C@@H](Cc2ccc(O)cc2)NC(=O)[C@@H](Cc2c[nH]c3ccccc23)NC(=O)[C@@H](C)NC(=O)[C@H]2CCCN2C(=O)[C@@H](CC(=O)O)NC(C)=O)CSCC(=O)Nc2ccc(cc2)NC(=O)CSC[C@H](C(=O)N[C@H](CCC(N)=O)C(=O)N[C@H](CCC(N)=O)C(=O)N[C@@H](C(N)=O)C(C)C)NC(=O)[C@@H](CCCC)NC1=O` [H103, Ac-dpawyecm*eaam*m*cqqv-NH2] (Ac-[dD][dP][dA][dW][dY][dE][dC][dNle][dE][dA][dA][dNle][dNle][dC][dQ][dQ][dV]-NH2; linker 7-14 via Phenylene(1,4-NHCOCH2)2): 0.88 µM.

Still in this experiment, the particulars now being: SPR, 25° C., 7-point two-fold dilution, top concentration 5 μM, N=1; read-out: Measured KD.
With `CC(=O)N[C@H](CC(=O)O)C(=O)N1CCC[C@@H]1C(=O)N[C@H](C)C(=O)N[C@H](CO)C(=O)N[C@H](CCCNC(=N)N)C(=O)N[C@H](CC(N)=O)C(=O)N[C@@H]1CSCC(=O)Nc2ccc(cc2)NC(=O)CSC[C@H](C(=O)N[C@H](CCC(=O)O)C(=O)N[C@H](Cc2ccc(O)cc2)C(=O)N[C@H](Cc2c[nH]c3ccccc23)C(N)=O)NC(=O)[C@@H](CC(C)C)NC(=O)[C@@H](Cc2c[nH]cn2)NC(=O)[C@@H](C)NC(=O)[C@@H](C)NC(=O)[C@@H](Cc2c[nH]c3ccccc23)NC(=O)[C@@H](CCC(N)=O)NC1=O` [H107, Ac-dpasrncqwaahlceyw-NH2] (Ac-[dD][dP][dA][dS][dR][dN][dC][dQ][dW][dA][dA][dH][dL][dC][dE][dY][dW]-NH2; linker 7-14 via Phenylene(1,4-NHCOCH2)2), the Kd stood at 1.1 µM.
